Measurements: patent US20130316998A1, “METHOD FOR TREATING PANCREATIC CANCER” (Niiki Pharma Acquisition Corp. 2, priority 2010, published 2013)

Tests used:
PANC-1 cells = details: Guo et al. 2009; Durkin et al. 2003; cited from earlier work
[1] = tested on: advanced-stage pancreatic cancer; details: erlotinib in combination with gemcitabine; Moore et al. 2007; cited from earlier work
[2] = tested on: pancreatic tumor cell line MIA PaCa2; assay: MTT assay in 3-dimentional tumor model (HuBiogel) derived from MIA PaCa2; format: cell-based; details: 3-D HuBiogel tumor beads
Procedure: (§1) The compound tris(8-quinolinolato)gallium(III) was tested in a 3-dimentional tumor model derived from pancreatic tumor cell line MIA PaCa2. Specifically, cells were trypsinized, washed, counted by trypan blue exclusion. Tumor beads were then prepared by mixing 20,000 cells/100 of HuBiogel (4 mg/mL) (See U.S. patent application Ser. No. 10/546,506, which is incorporated herein by reference). The 3-D tumor beads were cultivated for 72 hours in multi-well plates with complete media (10% FBS) in a 37° C. incubator +5% CO2. Mini-tumors were treated with various concentrations of the test compound tris(8-quinolinolato)gallium(III) in media (final 0.2-0.3% DMSO) or control (DMSO). Repeated drug treatment was done by removing the culture media and replacing with fresh media with drug compound or DMSO. On Day 3, MTT assay and live-cell staining with Calcein AM were performed (5 beads/assay set).
(§2) Statistical analysis of data sets (Average, T-test, GI-50) was performed using MS-Excel program. The average GI-50 (the drug concentration required for growth inhibition at 50%) is […].

[3] = tested on: pancreatic tumor cell line MIA PaCa2; assay: live-cell staining with Calcein AM / image analysis in 3-D tumor beads; format: cell-based; details: 3-D HuBiogel tumor beads, Day 3
Procedure: as §1, §2

PANC-1 cell line = assay: ATCC's MTT Cell Proliferation Assay, PANC-1; format: cell-based, human
Procedure: (§3) To test the activities of tris(8-quinolinolato)gallium(III), ATCC's MTT Cell Proliferation Assay® was performed using human pancreatic cancer cell lines PANC-1, BxPC-3, and Capan-1. Stock cultures were allowed to grow to 70-80% confluence for this study. The anti-proliferative activity of tris(8-quinolinolato)gallium(III), against the indicated cell lines was evaluated in vitro using the ATCC's MTT Cell Proliferation Assay (Catalog No. 30-1010K). PANC-1 was grown using DMEM, 10% fetal bovine serum (FBS), 1% of pen/strep/glutamine (PSG) and was seeded with 6E+03 cells/well. […] The plates were left overnight at room temperature in the dark and was read on a plate reader using SoftMax® Pro (version 5.2, Molecular Devices).
(§4) The absorbance data was analyzed as follows: Absorbance values were converted to Percent of Control and plotted against test agent concentrations for IC50 calculations using SoftMax® Pro (version 5.2, Molecular Devices). […] Percent of Control values were calculated by dividing the absorbance values for each test well by the No Drug Control average (column 11 values; cells+vehicle control) and multiplying by 100. Plots of Compound Concentration versus Percent of Control were analyzed using the 4-parameter equation to obtain IC50 values and other parameters that describe the sigmoidal dose response curve. […]

BxPC-3 cell line = assay: ATCC's MTT Cell Proliferation Assay, BxPC-3; format: cell-based, human; details: BxPC-3, 72 hours post-treatment
Procedure: as §3, §4

Capan-1 cell line = assay: ATCC's MTT Cell Proliferation Assay, Capan-1; format: cell-based, human; details: Capan-1, 72 hours post-treatment
Procedure: as §3, §4

Row | SMILES | resistance of PANC-1 cells to the drug (PANC-1 cells) | median overall survival benefit [1] | GI50 ([2]; MTT assay on Day 3, read-out: average GI-50 (the drug concentration required for growth inhibition at 50%)) | tumor proliferation activity ([2]; MTT assay, FIG. 1) | tumor killing in live-cell staining/image analysis [3] | activity in pancreatic cancer cells resistant to gemcitabine and/or erlotinib (PANC-1 cell line; PANC-1) | IC50 (PANC-1 cell line; PANC-1, 72 hours post-treatment, MTT) | IC50 (BxPC-3 cell line) | IC50 (Capan-1 cell line)
1 | C#Cc1cccc(Nc2ncnc3cc(OCCOC)c(OCCOC)cc23)c1 [erlotinib] | resistant | less than four weeks |  |  |  |  |  |  | 
2 | Nc1ccn([C@@H]2O[C@H](CO)[C@@H](O)C2(F)F)c(=O)n1 [gemcitabine] | resistant |  |  |  |  |  |  |  | 
3 | [Ga+3].[O-]c1cccc2cccnc12.[O-]c1cccc2cccnc12.[O-]c1cccc2cccnc12 [tris(8-quinolinolato)gallium(III)] |  |  | 35.7 µM | significantly inhibited tumor proliferation activity | dose-dependent tumor killing | active | 1.03 µM | 0.0032 µM | 8.17 µM
